Where “and” joins values, the source holds several entries; their conditions need not be identical. Equal entries are not always repeated. Entries after “also recorded” stand apart in the source; their conditions may differ.
How the values were obtained:
nNOS = details: assumed value from McMillan and Masters, 1993, Wolff et al., read-out: Kd imidazole; cited from earlier work
E. coli-expressed nNOS [1] = target: T1, E. coli-expressed nNOS (Rattus norvegicus, UniProt P29476); test: Absolute absorbance spectrum perturbation of nNOS; assay type: binding; set-up: made in house; host or cells: E. coli BL21 co-transformed with pNOSpCW and pGroELS; details: imidazole 1 mM; arginine 2 μM
Protocol: Studies were performed as described in Example 2 using 3.2 μM nNOS.
(§1) Spectrophotometric methods. Absolute spectra and CO difference spectra were performed essentially as described by McMillan and Masters (1993) with the exception that all measurements were performed in buffer B and the CO difference spectra were obtained by reducing the protein and then bubbling the sample cuvette with CO. Substrate perturbation difference spectra were performed as described (McMillan and Masters, 1993), but in the presence of 1 mM imidazole to shift the entire population of nNOS to the low spin heme state. The molar protein concentration was determined based on heme content and Δε444-475 =75 mM^1 (Stuehr and Ikeda-Saito, 1992; McMillan and Masters, 1995). All spectral analyses were performed using a Shimadzu Model 2101 UV/visible dual-beam spectrophotometer.

[2] = Specific activity of nNOS (NO formation); assay type: biochemical
Source text: (§2) Enzymatic activity determined by the rate of NO. formation. […] L-citrulline from [^3 H] […] For Km analysis, the concentration of [^3 H]

E. coli-expressed nNOS [3] = target: T1, E. coli-expressed nNOS; details: purified nnos, 2 min
Protocol: Enzymatic activity determined by the rate of NO. formation. The rate of nitric oxide formation was measured using both the hemoglobin capture assay (Kelm and Schrader, 1990), performed at 25° C. as described by Sheta, et al. (1994), and the method of Bredt and Snyder (1990), which monitors the formation of [^3 H] L-citrulline from [^3 H] […] Each reaction mixture, containing 0.5 mg of enzyme, was incubated at 25° C. for 2 minutes (over which time the reaction is linear). For Km analysis, the concentration of [^3 H]
Enzymatic activity of purified E. coli-expressed enzyme.

[4] = tested on: nNOS isolated from rat brain; details: read-out: Km for L-arginine; reported by Bredt and Snyder (1990); cited from earlier work
E. coli-expressed nNOS [5] = target: T1, E. coli-expressed nNOS; test: Substrate perturbation difference spectrophotometry (spectral binding); set-up: made in house; host or cells: E. coli BL21 co-transformed with pNOSpCW and pGroELS; details: 1 mM imidazole present; assuming Kd imidazole 160 μM; read-out: spectral binding constant (KS)
Protocol: Studies were performed as described in Example 2 using 1.5 μM nNOS in the presence of 1 mM imidazole.
as §1
(FIG. 2B), using the following:
apparent KS =KS (1+[Imidazole]/Kd imidazole).

[6] = tested on: human kidney 293 cell-purified nNOS; test: Km analysis, nNOS from human kidney 293 cells; assay type: biochemical, rat; details: read-out: Km for L-arginine
Protocol: as §2
These values are in excellent agreement with each other and with the Km value of 2 μM for nNOS reported by Bredt and Snyder (1990).

E. coli-expressed nNOS [7] = target: T1, E. coli-expressed nNOS; test: [3H]-NNA binding to purified E. coli-expressed nNOS by direct titration; set-up: made in house; host or cells: E. coli BL21 co-transformed with pNOSpCW and pGroELS
Protocol: Studies were performed as described in Example 4 using 10 pmole nNOS. Symbols are: circles, semi-purified E. coli-expressednNOS eluted from a 2'5'-ADP-Sepharose 4B column in the absence of BH4 during purification; triangles, purified E. coli-expressed nNOS purified in the presence of BH4 as described in Example 1; open symbols represent data from assays performed in the absence of additional BH4; filled symbols represent data from assays performed in the presence of 10 μM BH4.
The incubation was stopped by aspiration of the sample through the PVDF membrane. The wells were washed twice with 200 μl of 50 mM Tris, pH 7.6, air-dried for 10 minutes, 25 μl scintillation cocktail was added, and samples were counted.
Binding of N^ω -nitro-arginine to purified E. coli-expressed enzyme.

T1 sequence (P29476 whole entry): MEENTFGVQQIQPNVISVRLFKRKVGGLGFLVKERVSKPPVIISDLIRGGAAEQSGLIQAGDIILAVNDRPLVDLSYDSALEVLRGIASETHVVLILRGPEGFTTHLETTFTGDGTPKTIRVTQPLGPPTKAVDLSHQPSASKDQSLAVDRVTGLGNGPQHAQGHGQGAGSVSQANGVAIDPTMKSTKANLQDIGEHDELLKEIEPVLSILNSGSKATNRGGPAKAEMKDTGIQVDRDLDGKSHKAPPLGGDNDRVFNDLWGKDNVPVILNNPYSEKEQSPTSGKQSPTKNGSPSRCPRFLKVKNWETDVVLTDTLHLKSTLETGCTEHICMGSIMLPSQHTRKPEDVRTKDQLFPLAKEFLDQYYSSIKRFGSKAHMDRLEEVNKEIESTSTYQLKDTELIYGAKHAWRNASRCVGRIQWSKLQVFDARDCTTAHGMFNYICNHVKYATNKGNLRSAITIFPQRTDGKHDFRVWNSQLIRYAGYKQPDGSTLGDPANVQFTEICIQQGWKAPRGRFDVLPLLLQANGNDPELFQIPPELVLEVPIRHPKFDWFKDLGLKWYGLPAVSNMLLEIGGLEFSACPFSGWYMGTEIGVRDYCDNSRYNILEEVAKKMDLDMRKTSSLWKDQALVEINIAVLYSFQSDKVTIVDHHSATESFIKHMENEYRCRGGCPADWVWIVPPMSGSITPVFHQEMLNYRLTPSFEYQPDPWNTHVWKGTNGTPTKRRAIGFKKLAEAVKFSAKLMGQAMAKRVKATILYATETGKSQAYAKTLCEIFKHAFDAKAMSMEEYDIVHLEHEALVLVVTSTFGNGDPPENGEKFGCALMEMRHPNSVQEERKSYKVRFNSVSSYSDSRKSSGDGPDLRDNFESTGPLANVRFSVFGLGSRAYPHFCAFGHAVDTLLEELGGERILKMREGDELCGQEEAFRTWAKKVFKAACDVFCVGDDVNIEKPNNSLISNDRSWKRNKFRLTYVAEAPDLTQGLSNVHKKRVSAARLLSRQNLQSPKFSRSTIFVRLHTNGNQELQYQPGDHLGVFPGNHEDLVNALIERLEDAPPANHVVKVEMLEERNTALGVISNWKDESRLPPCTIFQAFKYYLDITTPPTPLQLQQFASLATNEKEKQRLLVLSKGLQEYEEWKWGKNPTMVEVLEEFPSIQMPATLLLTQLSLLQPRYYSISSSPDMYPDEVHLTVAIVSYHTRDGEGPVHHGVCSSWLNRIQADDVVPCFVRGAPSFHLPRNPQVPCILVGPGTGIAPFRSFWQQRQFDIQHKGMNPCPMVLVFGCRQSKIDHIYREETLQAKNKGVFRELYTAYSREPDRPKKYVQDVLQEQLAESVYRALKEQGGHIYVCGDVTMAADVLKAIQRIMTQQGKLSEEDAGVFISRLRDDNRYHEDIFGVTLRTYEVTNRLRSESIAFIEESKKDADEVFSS

Compound: c1c[nH]cn1 [imidazole]
- Kd (nNOS): 160 µM
- shift of maximum heme absorbance at 400 nm (E. coli-expressed nNOS [1]): low spin form (peak at 428 nm)

Compound: nNOS from JM109: nNOS co-expressed with groEL and groES in E. coli JM109, heavily proteolyzed upon cell lysis
- activity relative to nNOS purified from 293 cells ([2]; nNOS from E. coli JM109 co-expressing groEL and groES, heavily proteolyzed): 1%

Compound: C[C@H](O)[C@H](O)[C@H]1CNc2nc(N)[nH]c(=O)c2N1 [BH4, (6R)-5, 6, 7, 8 tetrahydro-L-biopterin]
- stimulation of turnover by BH4, fraction 1 (E. coli-expressed nNOS [3]): 2.7 fold
- stimulation of turnover by BH4, fraction 2 (E. coli-expressed nNOS [3]): 2.3 fold

Compound: N=C(N)NCCC[C@H](N)C(=O)O [L-arginine]
- Km [4]: 2000 nM and ~2000 nM
- Kd (E. coli-expressed nNOS [5]): ~717 nM and 717 nM
- Km [6]: 1900 nM and ~2000 nM
- shift of maximum heme absorbance at 400 nm (E. coli-expressed nNOS [1]): completely to the high spin form (peak at 395 nm)

Compound: nNOS: rat neuronal NOS overexpressed in E. coli BL21 with chaperonins groEL and groES
- specific activity compared with mammalian (kidney 293) cell-expressed nNOS [2]: equal to or exceeding the activity of kidney 293 cell-derived enzyme; also recorded: at least as high as that of kidney 293 cell-expressed enzyme; also recorded: at least equal to or greater than the mammalian cell-expressed nNOS
- specific activity / turnover ([2]; E. coli-expressed nNOS, both hemoglobin capture and citrulline assays): 450 nmol/min/mg

Compound: N=C(NCCC[C@H](N)C(=O)O)N[N+](=O)[O-] [NNA, N^ω -nitro-L-arginine]
- Bmax (E. coli-expressed nNOS [7]; Fraction 1, (+) BH4): 0.54 pmol NNA/pmol nNOS
- Bmax (E. coli-expressed nNOS [7]; Fraction 1, (-) BH4): 0.078 pmol NNA/pmol nNOS
- Bmax (E. coli-expressed nNOS [7]; Fraction 2, (+) BH4): 0.69 pmol NNA/pmol nNOS
- Bmax (E. coli-expressed nNOS [7]; Fraction 2, (-) BH4): 0.67 pmol NNA/pmol nNOS
- binding of NNA to nNOS fraction 1 (E. coli-expressed nNOS [7]; fraction 1 (pre-BH4)): binds significantly to E. coli-expressed nNOS fraction 1 only in the presence of added BH4
- binding of NNA to nNOS fraction 2 (E. coli-expressed nNOS [7]; fraction 2 (65% BH4-saturated)): equally well in the presence or absence of added BH4

Reference: US5919682A, “Overproduction of neuronal nitric oxide synthase” (Board of Regents, University of Texas System, priority 1995, dated 1999)
